Experimental data taken from the NIST ThermoML archive (doi:10.1016/j.jct.2003.09.004).

Assays:
[1] = excess molar enthalpy (molar enthalpy of mixing); xn = mol fraction of the nth substance listed; settings: 298.15 K, 101.33 kPa, Liquid, Flow calorimetry
[2] = 298.15 K, 101.33 kPa, Liquid

CCC(C)(C)C [2,2-dimethylbutane] + C=CCCCC
[1]
Settings | excess molar enthalpy [kcal/mol]
x2 = 0.05 | 0.00286
x2 = 0.1 | 0.0056
x2 = 0.1576 | 0.00829
x2 = 0.2005 | 0.01
x2 = 0.2501 | 0.0116
x2 = 0.3002 | 0.0129
x2 = 0.3501 | 0.0138
x2 = 0.4002 | 0.0145
x2 = 0.4507 | 0.0149
x2 = 0.4999 | 0.0149
x2 = 0.5498 | 0.0147
x2 = 0.5996 | 0.0142
x2 = 0.6496 | 0.0134
x2 = 0.7 | 0.0124
x2 = 0.7501 | 0.0109
x2 = 0.7999 | 0.00973
x2 = 0.85 | 0.00798
x2 = 0.9 | 0.00524
x2 = 0.95 | 0.00272

CCC(C)CC [3-methylpentane] + C=CCCCC
[1]
Settings | excess molar enthalpy [kcal/mol]
x2 = 0.0501 | 0.00244
x2 = 0.1001 | 0.00478
x2 = 0.1533 | 0.00687
x2 = 0.2001 | 0.00842
x2 = 0.2501 | 0.00987
x2 = 0.3 | 0.0111
x2 = 0.3495 | 0.0119
x2 = 0.3995 | 0.0126
x2 = 0.45 | 0.013
x2 = 0.4995 | 0.0131
x2 = 0.5498 | 0.0129
x2 = 0.5997 | 0.0125
x2 = 0.6501 | 0.0119
x2 = 0.6994 | 0.0109
x2 = 0.7509 | 0.00972
x2 = 0.7999 | 0.00839
x2 = 0.85 | 0.00659
x2 = 0.9 | 0.00455
x2 = 0.95 | 0.00235

CCC(C)CC [3-methylpentane]
Settings | mass density [kg/m3]
[2] | 659.94

CCCC(C)C [2-methylpentane] + C=CCCCC
[1]
Settings | excess molar enthalpy [kcal/mol]
x2 = 0.0501 | 0.00256
x2 = 0.1 | 0.00496
x2 = 0.1504 | 0.00721
x2 = 0.2 | 0.00904
x2 = 0.2499 | 0.0106
x2 = 0.3001 | 0.0119
x2 = 0.3495 | 0.0128
x2 = 0.4001 | 0.0135
x2 = 0.4498 | 0.0139
x2 = 0.4997 | 0.014
x2 = 0.5501 | 0.0139
x2 = 0.6 | 0.0135
x2 = 0.6501 | 0.0128
x2 = 0.6993 | 0.0118
x2 = 0.7503 | 0.0104
x2 = 0.8001 | 0.00938
x2 = 0.8575 | 0.00688
x2 = 0.9 | 0.00513
x2 = 0.95 | 0.00269

CC(C)CC(C)(C)C [2,2,4-trimethylpentane]
Settings | mass density [kg/m3]
[2], Vibrating tube method | 688.03

C=CCCCC [hex-1-ene] + CC(C)CC(C)(C)C
[1]
Settings | excess molar enthalpy [kcal/mol]
x1 = 0.0501 | 0.0024
x1 = 0.1001 | 0.00448
x1 = 0.1501 | 0.00647
x1 = 0.2075 | 0.00837
x1 = 0.2499 | 0.00967
x1 = 0.2998 | 0.0109
x1 = 0.35 | 0.0119
x1 = 0.3998 | 0.0128
x1 = 0.4498 | 0.013
x1 = 0.4998 | 0.0134
x1 = 0.5497 | 0.0134
x1 = 0.5997 | 0.0131
x1 = 0.6499 | 0.0125
x1 = 0.6997 | 0.0117
x1 = 0.75 | 0.0105
x1 = 0.7994 | 0.00905
x1 = 0.8498 | 0.0074
x1 = 0.9 | 0.00524
x1 = 0.95 | 0.00273

C=CCCCC [hex-1-ene]
Settings | mass density [kg/m3]
[2] | 668.73

CCC(C)(C)C [2,2-dimethylbutane]
Settings | mass density [kg/m3]
[2] | 644.92

CC(C)C(C)C [2,3-dimethylbutane]
Settings | mass density [kg/m3]
[2] | 662.36

CCCC(C)C [2-methylpentane]
Settings | mass density [kg/m3]
[2] | 650.22

CC(C)C(C)C [2,3-dimethylbutane] + C=CCCCC
[1]
Settings | excess molar enthalpy [kcal/mol]
x2 = 0.05 | 0.00357
x2 = 0.1001 | 0.00689
x2 = 0.1535 | 0.0101
x2 = 0.2 | 0.0124
x2 = 0.2508 | 0.0147
x2 = 0.2997 | 0.0162
x2 = 0.3499 | 0.0175
x2 = 0.3997 | 0.0186
x2 = 0.4498 | 0.019
x2 = 0.4998 | 0.0189
x2 = 0.5498 | 0.0186
x2 = 0.5996 | 0.0179
x2 = 0.6497 | 0.0169
x2 = 0.6997 | 0.0154
x2 = 0.7498 | 0.0136
x2 = 0.8001 | 0.0117
x2 = 0.8501 | 0.00924
x2 = 0.9 | 0.00639
x2 = 0.9499 | 0.00332
